Like-named read-outs stand apart in the source and are kept apart here. Starred links: 1 amine or outer side, 2 acyl side, 3 side chain; linkers in the order of their positions; H or OH if unused. Positions of bridges follow the written chain, without caps; N, C: chain ends. Non-standard residues stand in square brackets, D forms with d. Residues, ends and D or L forms follow the SMILES beside them. Chains are numbered I, II in the order given. Actinocin(9to1) = Cc1c2oc3c(C)ccc(C(=O)[*:1])c3nc-2c(C(=O)[*:2])c(N)c1=O; NMeV = CN[C@H](C(=O)O)C(C)C; Sar = CNCC(=O)O
How the values were obtained:
[1] = test system: nascent RNA synthesis in HCT116 p53−/− cells; assay: Nascent RNA detection in cells by 5EU incorporation (click labelling, confocal microscopy); assay type: cell-based, human; settings: 30 min treatment then 1 h 5EU
Procedure: Cells were grown until 50–60% confluent on sterilized glass slides (Superfrost® Plus microscope slides, Menzel-Glaser) and then were treated with compounds or vehicle (as indicated) for 30 min, followed by the addition of 5EU (5-Ethynyl-uridine, 1 mM final concentration) and further incubation for 1 h. The following concentrations were used: Actinomycin D (ActD): 3 µM; ethidium bromide (EB): 40 µM; proflavine (Pro): 2 µM; CX5461: 5 µM.
Cells were fixed with 3.7% paraformaldehyde and permeabilized with 0.5% Triton X-100 in PBS. Nascent RNA was fluorescently labelled using Click-IT® Cell Reaction Buffer Kit (Invitrogen, Waltham, MA, USA) supplemented with Cy5 Azide (Sigma Aldrich) according to manufacturer’s instruction. Nuclei were stained with Hoechst 33342 and images were acquired with a Leica TCS SP5 confocal microscope equipped with an x63 oil-filled objective. Leica Application Suite X (LAS X) software was used for quantification of 5EU incorporation. Box-and-whisker plots of quantification of 5EU incorporation were obtained with Excel. They show the median, the 25% and 75% quantiles, as well as outliers.
Although we see no significant effect of the intercalators and grove-binders on specific Pol-II transcription in vitro we performed experiments aiming to explore effect of these compounds on general level of Pol-II/III transcription in cells. To this end we used two approaches. Firstly, we measure the level of nascent RNA synthesis in […] p53^−/− cells treated with proflavine, ethidium bromide, CX-5461 (specific inhibitor of Pol-I transcription) at concentrations sufficient to inhibit about 90% of Pol-I transcription as shown in Figure 5A. As a control we used high concentration of ActD (3µM) that inhibits activity of all […] polymerases. Cells were treated with the selected compounds or a vehicle for 30 min and then 5EU (5-Ethynyl-uridine) was added and incubation was continued for another hour. During this time, 5EU is incorporated into any newly synthesized RNA, and the level of incorporation can later be assessed using a combination of “click” approach and confocal microscopy.

[2] = test system: Pol II/III transcription in HCT116 p53−/− cells; assay: Pol-II (18 house-keeping genes) and Pol-III transcripts by qPCR in p53 null cells; assay type: cell-based, human; settings: 30 min
Procedure: (§1) Cells were grown until 70% confluent and then treated with compounds for 30 min. The following concentrations were used: ActD: AD1–3 nM; AD2–3 µM; Camptothecin (CPT): 8 µM; ethidium bromide (EB): 40 µM; crystal violet (CV): 20 µM; Pro: 2 µM; CX5461: 5 µM. RNA was purified using the RNeasy purification kit (Qiagen) following the manufacturer’s instructions and the RNA concentration was determined spectroscopically. A total 1 µg of RNA was converted to cDNA using the High Capacity RNA-to-cDNA reverse transcriptase kit (Applied Biosystems, Waltham, MA, USA). Then 47/45S pre-rRNA levels were analyzed on the LighCycler 480 thermocycler (Roche) using primers and conditions described previously.
(§2) Pol-II and Pol-III transcripts were analyzed as described previously. All signals were normalized to 18S rRNA level. The standard deviation was calculated from three independent experiments.
(§3) As a complimentary approach we also measured the effect of intercalators and grove binders on transcription by Pol-II and Pol-III by determining relative expression levels of 18 house-keeping genes (the Human Housekeeper reference gene plate, Roche) and of three Pol-III dependent genes in intercalator treated and untreated HCT116 p53^−/− and p53^+/+ cells as described previously.

[3] = test system: Pol-II transcription in HCT116 p53+/+ cells; assay: Pol-II transcripts (18 house-keeping genes) by qPCR in cells expressing wt p53; assay type: cell-based, human; settings: cells expressing wt p53, 30 min; concentrations as Figure S2
Procedure: as §1, §2, §3
Figure S2. […] Total RNA was isolated, reverse transcribed and analysed by qPCR. […]

[4] = test system: Pol-I specific transcription; assay: Pol-I specific transcription in vitro with or without Top 1 (purified GTFs or HeLa NE; immobilized linear or supercoiled template); assay type: biochemical, human; settings: GTFs lacking Top 1 + immobilized linear template, HeLa NE + supercoiled plasmid
Procedure: (§4) Specific Pol I driven transcription reactions were performed as described using 200 ng of supercoiled plasmid DNA or immobilized rDNA promoter. Reactions were supplemented with 1 µL HeLa nuclear extract or with highly purified general transcription factors (GTF: 2 µL SL1, 2.5 µL Pol-I and 0.1 µL UBF). S1 nuclease protection was performed as described with a 60 bp ^32P-5′-end labelled oligonucleotide containing a sequence identical to the region between −20 and +40 of the template strand in the human rRNA gene promoter. […] The standard deviations were calculated from three independent experiments.

[5] = test system: Pol-I transcription (rRNA synthesis) in HCT116 p53−/− cells; assay: IC50 of Pol-I transcription (rRNA synthesis) in cells; assay type: cell-based, human; settings: Homo sapiens
Procedure: as §1
Next, we determined IC50 concentrations for EtBr, Pro, CPT, DAPI and CV in cells by measuring the level of Pol-I transcription at various compound concentrations (Table 2). For this assay we used the HCT116 p53^−/− cell line to avoid any effect of p53 dependent repression of Pol-I transcription.

[6] = test system: UBF occupancy at the rDNA, HCT116 p53−/− cells; assay: ChIP of the rDNA repeat: UBF occupancy; assay type: cell-based, human; settings: 30 min at IC50 in cells: EB 9.16 µM; CV 5 µM; Pro 0.5 µM
Procedure: ChIP assays were carried out as described previously. In brief, cells were grown until 70% confluent, then treated with compounds for 30 min. The following concentrations were used: ethidium bromide (EB)—9.16 µM; crystal violet (CV)—5 µM; proflavine (Pro)—0.5 µM. Cells were cross-linked with formaldehyde (final concentration 1%) for 10 min, and the cross-linking stopped by the addition of glycine (final concentration 0.125 M) for 5 min. Cross-linked chromatin was sheared using a Biorupter (Diagenode, Liege, Belgium) until 300-base pair average size. Immunoprecipitation was carried out using chromatin isolated from 1 × 10^6 cells, antibodies listed in Supplementary Table S2 and 30 μL of Protein A/Protein G magnetic beads (Invitrogen). Purified immunoprecipitated DNA was analyzed by two tetraplex quantitative PCR panels designed for eight regions of the rDNA repeat; promoter, intergenic spacer 4 (IGS4), 18S, 5.8S, 28S, terminator, IGS1, and 5′externally transcribed spacer (ETS). […] Signal were quantified using internal standards and specific signals were calculated as a difference between the signals from the specific antibody and from the negative control (an appropriate IgG). Results were expressed as the amount relative to input chromatin and normalized to control IgG levels, with the standard deviations calculated from three independent ChIP experiments. […]

[7] = test system: Pol-I transcription (47/45S pre-rRNA) in HCT116 p53−/− cells; assay: 47/45S pre-rRNA level in cells by qPCR; assay type: cell-based, human; settings: 30 min, CPT 8 µM, EB 40 µM, CV 20 µM, Pro 2 µM, CX5461 5 µM (Figure 5A)
Procedure: as §1, §2

[8] = test system: Pol-I specific transcription (human rRNA gene promoter); assay: In vitro Pol-I specific (promoter-driven) transcription assay, HeLa nuclear extract, S1 nuclease protection; assay type: biochemical; settings: 1 µL HeLa nuclear extract, 100 ng plasmid DNA containing rRNA promoter, triplicates
Procedure: as §4, with “Specific Pol I driven transcription reactions were performed as described using 200 ng of supercoiled plasmid DNA or immobilized rDNA promoter.” left out
We tested a range of DNA intercalators and minor/major groove binders for the potential to inhibit Pol-I and determined IC50 for each drug using an in vitro Pol-I specific transcription assay. This assay primarily measures the efficiency of the initial stages of transcription which include preinitiation complex (PIC) formation, first phosphodiester bond synthesis and promoter clearance (see reviews and for a detailed description of the Pol-I transcription cycle). The reactions were supplemented with supercoiled rDNA template and HeLa nuclear extract (NE) and the level of specific transcript was determined by S1 nuclease protection assay as described.

Q: How did the “5EU incorporation (RNA synthesis)” value ([1]; 3 μM) turn out when `Cc1c2oc3c(C)ccc(C(=O)N[C@@H]4C(=O)N[C@H](C(C)C)C(=O)N5CCC[C@H]5C(=O)N(C)CC(=O)N(C)[C@@H](C(C)C)C(=O)O[C@@H]4C)c3nc-2c(C(=O)N[C@@H]2C(=O)N[C@H](C(C)C)C(=O)N3CCC[C@H]3C(=O)N(C)CC(=O)N(C)[C@@H](C(C)C)C(=O)O[C@@H]2C)c(N)c1=O` [ActD, Actinomycin D] (I: T[dV]P[Sar][NMeV] / II: T[dV]P[Sar][NMeV]; ester I:1-I:C, II:1-II:C; linker I:N-II:N via Actinocin(9to1)) was run?
A: almost completely abolished

Q: What about the “effect on Pol II/III transcription” value ([2]; AD1 3 nM ActD, CPT 8 µM, EB 40 µM, CV 20 µM, Pro 2 µM) of the same compound?
A: did not repress

Q: And the “transcription of Pol-II targets” value ([2]; high concentration of ActD (AD2, 3 µM))?
A: causes repression of transcription of all Pol-II targets

Q: What about the “effect on mRNA levels of the genes tested” value [3] of the same compound?
A: quite significant

Q: For `CC[C@@]1(O)C(=O)OCc2c1cc1n(c2=O)Cc2cc3ccccc3nc2-1` [Camptothecin], which “effect on Pol-I specific transcription” value [4] is on record?
A: represses Pol-I specific transcription under all conditions

Q: And the IC50 ([5]; HCT-116, read-out: IC50 (rRNA Synthesis))?
A: 1990 nM

Q: For `Nc1ccc2cc3ccc(N)cc3nc2c1` [Proflavine, proflavine], which “distribution (nucleolar localization) of nascent RNAs” value ([1]; EB 40 µM, Pro 2 µM, CX5461 5 µM) is on record?
A: affected the distribution of nascent RNAs

Q: What about the “inhibition of all transcription (5EU incorporation), effect of ActD set to be 100% inhibition” value ([1]; HCT116 p53−/− cells, EB 40 µM, Pro 2 µM, CX5461 5 µM) of the same compound?
A: 48%

Q: What about the UBF occupancy [6] of the same compound?
A: affected

Q: And the “inhibition of Pol-I transcription” value [7]?
A: about 90%

Q: What about the IC50 ([5]; HCT-116, p53 null HCT116 cells, triplicates, total RNA analyzed by S1 nuclease protection assay, read-out: IC50 (rRNA Synthesis)) of the same compound?
A: 476 nM

Q: And the IC50 [8]?
A: 350 nM

Reference: publication PMC8466728, “DNA Intercalators Inhibit Eukaryotic Ribosomal RNA Synthesis by Impairing the Initiation of Transcription” (Genes, 2021)
